We go through 13 molecules from PMC9570967 (Molecules, 2022).

Data set [1] has as its target T1, mouse mu opioid receptor (Mus musculus, UniProt P42866).
T1 construct: expressed in transfected cells; host or cells: CHO (mMOR-CHO), membrane homogenates
Description: Competition radioligand binding assay ([3H]naloxone, mMOR-CHO membranes). The conditions noted are these: 1.4 nM [3H]naloxone, read-out: [3H]NLX Binding Ki. As for the experimental part: In vitro binding assays were performed using monocloned mouse mu opioid receptor expressing Chinese hamster ovary (CHO) cells (mMOR-CHO). mMOR-CHO cell culture and membrane homogenate preparation were performed as previously described. All assays were duplicated and repeated at least three times.
Competition binding assays were performed as previously described. […] Bound radioactive ligand was isolated by filtration through GF/B glass fiber filters and rinsed three times with ice-cold wash buffer (50 mM Tris-HCl, pH 7.2). Bound radioactivity was determined via liquid scintillation ounting. […] The IC50 values were determined by nonlinear regression analysis using GraphPad Prism 9 (GraphPad Software, San Diego, CA, USA) and converted to Ki values using the Cheng–Prusoff equation.

Data set [2] addresses T1, mouse mu opioid receptor. Description: [35S]GTPγS functional assay (mMOR-CHO membranes). In kind it is biochemical. The conditions noted are these: for EC50: mMOR-CHO membranes, read-out: GTPgS EC50; for Emax: read-out: GTPgS % Emax of (DAMGO). On the technique in general: GTPγS resists hydrolysis and so accumulates on activated G proteins.
Data set [3] relates to squirrel monkeys. The data set is described as follows: Antinociception: warm-water tail-withdrawal. Type of data set: in vivo, squirrel monkeys (Saimiri sciureus). The conditions noted are these: 52 °C water, cumulative dosing. The procedure:
Male squirrel monkeys (Saimiri sciureus) were housed in a climate-controlled vivarium with a 12 h light/dark cycle (7 AM–7 PM) in the McLean Hospital Animal Care Facility (licensed by the U.S. Department of Agriculture and compliant with guidelines provided by the Committee on Care and Use of Laboratory Animals of the Institute of Laboratory Animals Resources, Commission on Life Sciences, National Research Council; 2011). Tail withdrawal latencies were assessed as described previously. Briefly, monkeys were seated in customized Plexiglas chairs that allowed their tails to hang freely. Tail withdrawal latencies were measured by immersing the subject’s tail in water held at 35 or 52 °C (temperatures were presented in a randomized order during successive test components). After obtaining a baseline tail withdrawal latency, complete dose response curves were generated in each subject using standard cumulative dosing procedures. Briefly, every 15 min after an injection tail-withdrawal latencies at each temperature were redetermined and subjects were injected with the next dose, such that the total (cumulative) dose was increased by ½ log10 units in each successive cycle. This procedure was repeated until either (a) the tail-withdrawal latency from 52 °C water reached the maximum allowable latency (10 sec), or (b) tail-withdrawal latency no longer increased with increases in dose of the test drug.
(§1) All statistical analyses and graphic representations were completed with GraphPad Prism version 9.3.0 (GraphPad Software, San Diego, CA, USA) using log transformed values of doses. Group means ± SEM tail withdrawal latencies (in sec) and minute volume ratios are plotted as a function of drug dose. Data were analyzed using One-way ANOVA with significance set at p < 0.05, followed by Dunnett’s multiple comparison test.

For data set [4], the system named is squirrel monkeys. Description: Respiratory depression: ventilatory response to hypercapnia (5% CO2 in air). The conditions noted are these: ratio of minute volumes in 5% CO2 and room air, cumulative dosing. Type of data set: in vivo, squirrel monkeys (Saimiri sciureus). The procedure: Ventilation measures were assessed as described previously. Briefly, squirrel monkeys were acclimated to a customized acrylic chamber (10″ d × 10″ w × 10″ h) that served as a whole-body plethysmograph (EMKA Technologies, Montreal, PQ, Canada). Gas (either air or a 5% CO2 in air mixture) was introduced to and extracted from the chamber at a constant flow rate of 5 L/min. Experimental sessions consisted of 4–6 consecutive 30 min cycles, each comprising a 20 min exposure to air followed by a 10 min exposure to 5% CO2. Drug effects were determined using cumulative dosing procedures, and injections were administered following each exposure to 5% CO2. Respiratory rate and tidal volume (mL/breath) were recorded over 1 min periods and were multiplied to provide minute volumes. Data from the last three minutes of each exposure to air or CO2 were averaged and used for analysis of drug effects on ventilation.
as §1

In data set [5] the target is T2, human κ-opioid receptor (OPRK1) (Homo sapiens, UniProt P41145). The conditions noted are these: versus EC90 of U50488H; normalized to nor-BNI.
Data set [6] addresses T2, human κ-opioid receptor (OPRK1). Description: cell-based.
The target is the same in data set [7]. The data set is described as follows: cell-based. This is another data set of the same source.
For data set [8], the target named is T3, human δ-opioid receptor (OPRD1) (Homo sapiens, UniProt P41143). Description: Forskolin-induced cAMP accumulation assay, DOR agonist mode. The conditions noted are these: for Emax: CHO-K1, read-out: DOR Agonist %Emax ± SEM.
The target in data set [9] is T3, human δ-opioid receptor (OPRD1). The data set is described as follows: Forskolin-induced cAMP accumulation assay, DOR antagonist mode. The conditions noted are these: for DOR Antagonist %Imax ± SEM: versus EC50 of SNC80, normalized to naltrexone.

Molecules are shown by their SMILES. “Also recorded” adds a separate entry of the source.

T1 sequence (P42866 whole entry): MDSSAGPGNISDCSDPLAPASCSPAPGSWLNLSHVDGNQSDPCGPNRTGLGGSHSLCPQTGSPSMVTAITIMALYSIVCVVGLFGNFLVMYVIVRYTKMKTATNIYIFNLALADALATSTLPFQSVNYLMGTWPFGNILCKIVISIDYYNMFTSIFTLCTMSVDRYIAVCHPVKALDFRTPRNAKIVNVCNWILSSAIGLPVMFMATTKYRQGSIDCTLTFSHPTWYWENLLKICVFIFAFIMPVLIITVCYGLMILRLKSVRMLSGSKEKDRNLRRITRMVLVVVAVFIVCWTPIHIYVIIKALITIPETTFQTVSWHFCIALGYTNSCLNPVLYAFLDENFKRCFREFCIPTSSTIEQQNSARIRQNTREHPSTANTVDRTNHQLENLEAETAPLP
T3 sequence (P41143 whole entry): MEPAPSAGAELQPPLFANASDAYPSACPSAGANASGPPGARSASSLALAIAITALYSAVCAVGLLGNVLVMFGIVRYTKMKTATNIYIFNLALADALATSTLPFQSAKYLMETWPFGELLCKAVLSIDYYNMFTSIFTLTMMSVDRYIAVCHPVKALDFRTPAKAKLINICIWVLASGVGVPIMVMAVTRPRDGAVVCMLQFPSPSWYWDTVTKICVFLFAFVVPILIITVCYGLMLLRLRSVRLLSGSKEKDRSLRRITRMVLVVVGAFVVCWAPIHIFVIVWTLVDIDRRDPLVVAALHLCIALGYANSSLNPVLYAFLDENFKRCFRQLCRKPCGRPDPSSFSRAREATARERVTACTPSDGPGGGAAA
T2 sequence (P41145 whole entry): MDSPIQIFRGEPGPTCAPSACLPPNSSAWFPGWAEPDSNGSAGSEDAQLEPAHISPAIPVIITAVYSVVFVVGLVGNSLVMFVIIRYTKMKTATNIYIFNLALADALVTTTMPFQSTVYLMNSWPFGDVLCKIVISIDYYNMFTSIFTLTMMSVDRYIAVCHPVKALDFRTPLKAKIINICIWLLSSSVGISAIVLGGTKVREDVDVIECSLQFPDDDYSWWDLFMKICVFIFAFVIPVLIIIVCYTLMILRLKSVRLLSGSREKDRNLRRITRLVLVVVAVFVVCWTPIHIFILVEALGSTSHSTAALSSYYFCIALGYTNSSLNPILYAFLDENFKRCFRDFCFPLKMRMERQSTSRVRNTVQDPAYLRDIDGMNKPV

One may read the Ki as the dissociation constant of the complex between target and ligand, obtained from inhibition or displacement. As a reminder, the EC50 is the concentration at which the effect is half-maximal. One may read the Emax as the maximal effect, on the per cent scale that the assay sets. Broadly, the IC50 is the concentration at which inhibition is half-maximal. A low value points to greater potency. As for `C=C[C@H]1[C@H]2CCC[C@]1(c1cccc(O)c1)CCN2CCc1ccccc1` [Compound 8, 3-((1R,5S,9R)-2-Phenethyl-9-vinyl-2-azabicyclo [3.3.1]nonan-5-yl)phenol], the Ki on mouse mu opioid receptor [1] was determined as 0.5 ± 0.05 nM. Further, the EC50 at mouse mu opioid receptor [2] was 6.73 ± 1.35 nM; in data set [6], greater than 10000 nM; in [8], greater than 10000 nM. Further, on mouse mu opioid receptor [2], the Emax stood at 20.1 ± 0.78%. Moreover, the “Effect on tail withdrawal latency (antinociception)” value (from here on “Effect on tail withdrawal latency”) in the data set on squirrel monkeys [3] is “significantly increased tail withdrawal latency; also recorded: had antinociceptive effects”. In addition, the “Effect on ventilatory ratio (respiratory depression)” value in the data set with squirrel monkeys [4] is recorded as “reduced the ability of 5% CO2 to stimulate increases in ventilation; also recorded: morphine-like respiratory depressant effects”. Further, in [5], the “KOR Antagonist %Imax ± SEM” value turned out to be 97.1 ± 9.2%. Besides, the figures for the IC50 in data set [7] and in data set [9] were 74 ± 30.5 nM and 113 ± 43.6 nM, respectively. For the same molecule, the “DOR Antagonist %Imax ± SEM” value in data set [9] is given as 119.1 ± 15.5%.
Consider `C=C[C@@H]1[C@H]2CCC[C@]1(c1cccc(O)c1)CCN2CCc1ccccc1` [Compound 9, 3-((1R,5S,9S)-2-Phenethyl-9-vinyl-2-azabicyclo [3.3.1]nonan-5-yl)phenol], for which the Ki on mouse mu opioid receptor [1] was 1.91 ± 0.13 nM. In addition, the EC50 at mouse mu opioid receptor [2] is 37 ± 15.5 nM; in data set [6], greater than 10000 nM; in data set [8] it was 57 ± 21.4 nM. For the same molecule, the Emax at mouse mu opioid receptor [2] was 10.5 ± 0.82%; in [8], 22.6%. Moreover, in the data set on squirrel monkeys [3], the “Effect on tail withdrawal latency” value is reported as “inconsistent effect of tail withdrawal latency; also recorded: antinociceptive effects in some, but not all subjects”. Also, in the data set on squirrel monkeys [4], the “Effect on ventilatory ratio (respiratory depression)” value is listed as “did not alter ventilation; also recorded: did not produce morphine-like decreases in ventilatory ratio”. In addition, the “KOR Antagonist %Imax ± SEM” value in data set [5] is listed as 101.8 ± 19.1%. In [7], this molecule showed an IC50 of 19.8 ± 9.7 nM.
On to `C=C[C@H]1[C@@H]2CCC[C@@]1(c1cccc(OC)c1)CCN2CCc1ccccc1` [Compound 13, (1S,5R,9R)-5-(3-Methoxyphenyl)-2-phenethyl-9-vinyl-2-azabicyclo [3.3.1]nonane], for which the EC50 in [6] and in [8] was greater than 10000 nM throughout. Besides, the IC50 in data set [7] and in [9] was greater than 10000 nM throughout.
Turning to `C=C[C@@H]1[C@@H]2CCC[C@@]1(c1cccc(O)c1)CCN2CCc1ccccc1` [Compound 14, 3-((1S,5R,9S)-2-Phenethyl-9-vinyl-2-azabicyclo [3.3.1]nonan-5-yl)phenol], the “KOR Antagonist %Imax ± SEM” value in [5] turned out to be 105.6 ± 4.6%. Further, the results for the EC50 in [6] and in data set [8] were greater than 10000 nM and 122 ± 47.2 nM, respectively. This molecule yielded an IC50 in data set [7] of 128 ± 48.2 nM. In [8], the Emax was 40.6%.
As to `C=C[C@H]1[C@@H]2CCC[C@@]1(c1cccc(O)c1)CCN2CCc1ccccc1` [Compound 15, 3-((1S,5R,9R)-2-Phenethyl-9-vinyl-2-azabicyclo [3.3.1]nonan-5-yl)phenol], in data set [5], the “KOR Antagonist %Imax ± SEM” value is reported as 104.9 ± 11.2%. Further, the EC50 in data set [6] and in data set [8] was greater than 10000 nM in each case. Also, the figures for the IC50 in data set [7] and in [9] were 28.4 ± 4.2 nM and 144 ± 41 nM, respectively. In [9], the “DOR Antagonist %Imax ± SEM” value came out at 201.4 ± 35.9%.
As for `C/C=C\[C@@H]1[C@H]2CCC[C@]1(c1cccc(O)c1)CCN2CCc1ccccc1` [Compound 18, 3-((1R,5S,9S)-2-Phenethyl-9-((Z)-prop-1-en-1-yl)-2-azabicyclo [3.3.1]nonan-5-yl)phenol], the Ki at mouse mu opioid receptor [1] is 0.56 ± 0.07 nM. Also, the EC50 at mouse mu opioid receptor [2] is 8.38 ± 0.77 nM; in data set [6], greater than 10000 nM; in [8] it was 9.69 ± 2.23 nM. For the same molecule, the Emax on mouse mu opioid receptor [2] was 75.3 ± 3.83%; in data set [8], 74.5%. Moreover, the “KOR Antagonist %Imax ± SEM” value in data set [5] is given as 114.8 ± 11.2%. Also, the IC50 in data set [7] came out at 238 ± 52.6 nM.
In the case of `C/C=C\[C@H]1[C@@H]2CCC[C@@]1(c1cccc(O)c1)CCN2CCc1ccccc1` [Compound 20, 3-((1S,5R,9R)-2-Phenethyl-9-((Z)-prop-1-en-1-yl)-2-azabicyclo [3.3.1]nonan-5-yl)phenol], the “KOR Antagonist %Imax ± SEM” value in data set [5] is 126.7 ± 2.6%. The EC50 in data set [6] and in data set [8] was greater than 10000 nM throughout. Moreover, the figures for the IC50 in [7] and in data set [9] were 4.02 ± 0.25 nM and 7.52 ± 2.93 nM, respectively. The “DOR Antagonist %Imax ± SEM” value in [9] is listed as 142.5 ± 23.7%.
For the molecule `C/C=C\[C@@H]1[C@@H]2CCC[C@@]1(c1cccc(O)c1)CCN2CCc1ccccc1` [Compound 21, 3-((1S,5R,9S)-2-Phenethyl-9-((Z)-prop-1-en-1-yl)-2-azabicyclo [3.3.1]nonan-5-yl)phenol], the “KOR Antagonist %Imax ± SEM” value in data set [5] came to 111.8 ± 2.2%. This molecule also had an EC50 in data set [6] greater than 10000 nM. 163 ± 37 nM corresponded to half-maximal inhibition in data set [7] (IC50). For the same molecule, in data set [8], the EC50 turned out to be 60.5 ± 3.7 nM and the Emax is 66.7%.
Consider `CC/C=C\[C@H]1[C@H]2CCC[C@]1(c1cccc(O)c1)CCN2CCc1ccccc1` [Compound 23, 3-((1R,5S,9R)-9-((Z)-But-1-en-1-yl)-2-phenethyl-2-azabicyclo [3.3.1]nonan-5-yl)phenol], for which, in [5], the “KOR Antagonist %Imax ± SEM” value is 109.5 ± 8.3%. The EC50 in data set [6] and in data set [8] was greater than 10000 nM each time. In addition, the IC50 in data set [7] amounted to 328 ± 96.9 nM; in [9], 69 ± 4.8 nM. Also, the “DOR Antagonist %Imax ± SEM” value in data set [9] was 166.6 ± 40.0%.
On to `CC/C=C\[C@@H]1[C@H]2CCC[C@]1(c1cccc(O)c1)CCN2CCc1ccccc1` [Compound 24, 3-((1R,5S,9S)-9-((Z)-But-1-en-1-yl)-2-phenethyl-2-azabicyclo [3.3.1]nonan-5-yl)phenol], for which, in data set [5], the “KOR Antagonist %Imax ± SEM” value was determined as 103.8 ± 9.2%. Moreover, the EC50 in [6] and in [8] was greater than 10000 nM in each case. Further, the results for the IC50 in [7] and in data set [9] were 283 ± 46.4 nM and 3220 ± 572 nM, respectively. In data set [9], the “DOR Antagonist %Imax ± SEM” value came to 182.3 ± 56.4%.
With `CC/C=C\[C@@H]1[C@@H]2CCC[C@@]1(c1cccc(O)c1)CCN2CCc1ccccc1` [Compound 26, 3-((1S,5R,9S)-9-((Z)-But-1-en-1-yl)-2-phenethyl-2-azabicyclo [3.3.1]nonan-5-yl)phenol], in data set [5], the “KOR Antagonist %Imax ± SEM” value came to 96.2 ± 0.9%. In addition, the EC50 in data set [6] and in [8] was greater than 10000 nM each time. For the same molecule, the half-maximal inhibitory concentration (IC50) in [7] worked out at 12.2 ± 2.5 nM; in data set [9], 520 ± 144 nM. Also, the “DOR Antagonist %Imax ± SEM” value in data set [9] is 226.1 ± 14.0%.
On to `CC/C=C\[C@H]1[C@@H]2CCC[C@@]1(c1cccc(O)c1)CCN2CCc1ccccc1` [Compound 27, 3-((1S,5R,9R)-9-((Z)-But-1-en-1-yl)-2-phenethyl-2-azabicyclo [3.3.1]nonan-5-yl)phenol], for which the “KOR Antagonist %Imax ± SEM” value in data set [5] was 98.2 ± 2.3%. For the same molecule, the EC50 in [6] and in data set [8] was greater than 10000 nM in each case. Further, the IC50 in data set [7] stood at 0.79 ± 0.28 nM; in data set [9], 8.22 ± 2.44 nM. Besides, in data set [9], the “DOR Antagonist %Imax ± SEM” value stood at 211.5 ± 24.7%.
Regarding `CN1CC[C@]23c4c5ccc(O)c4O[C@H]2[C@@H](O)C=C[C@H]3[C@H]1C5` [Morphine, reference compound], in the data set with squirrel monkeys [3], the “Effect on tail withdrawal latency” value is on record as “significantly increased tail withdrawal latency”.
